Test results published in patent publication US10118954B2, “Apelin analogues” (University of Ulster, priority 2014, dated 2018).

What was measured:
[1] = Degradation of apelin peptides by plasma from fasted normal NIH Swiss mice (rp-HPLC, MALDI-TOF MS); assay type: in vitro ADME
In short: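 Apelin peptides were incubated with plasma from fasted normal NIH Swiss mice for 4 h, and the reaction was stopped with TFA. Products were separated by C-8 rp-HPLC with detection at 214 nm. Peak fractions were identified by MALDI-TOF MS, giving fragment molecular weights and retention times.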

[2] = system: NIH Swiss mice fed a high-fat diet for 150 days; test: Acute and delayed i.p. glucose tolerance test, blood glucose and plasma insulin; assay type: in vivo; details: fatty acid derived agonists
In short: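 Diet-induced obese-diabetic mice (high-fat diet 150 days, 18 h fasted) received i.p. glucose (18 mmol/kg) alone or with apelin analogues (25 nmol/kg), or analogues given 2, 8 or 16 h beforehand. Tail blood glucose and plasma insulin sampled at 0, 15, 30, 60, 105 min; n=8, mean±SEM.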

[3] = NIH Swiss, mouse, plasma, pH 7.4
[4] = 16 h delayed i.p. glucose tolerance test, 25 nmol/kg
[5] = acute i.p. glucose tolerance test, 25 nmol/kg

Rank order of stability [1]: =1 | Half-life (t1/2) ([1]; NIH Swiss, mouse, plasma, 263 µg/mL, pH 7.4): >24 h | half-life at 263 µg/mL [1, 3]: > 24 h | remaining at 4 h, 263 µg/mL [1, 3]: 100%
Compound: CCCCCCCCCCCCCCCC(=O)N[C@@H](CCC(=O)NCCCC[C@H](NC(=O)[C@H](Cc1c[nH]cn1)NC(=O)[C@H](CO)NC(=O)[C@H](CC(C)C)NC(=O)[C@H](CCCNC(=N)N)NC(=O)[C@@H]1CCCN1C(=O)[C@H](CCCNC(=N)N)NC(=O)[C@@H]1CCC(=O)N1)C(=O)NCC(=O)N1CCC[C@H]1C(=O)N[C@@H](CCSC)C(=O)N1CCC[C@H]1C(=O)N[C@@H](Cc1ccccc1)C(N)=O)C(=O)O [pGlu(Lys^8GluPAL)apelin-13-amide]
Rank order on basis of anti-hyperglycaemic efficacy ([2]; 16 h delay): 1 | Blood glucose as percent of glucose-alone control (lower = stronger glucose lowering) [2, 4]: 57% (**) | Insulin secretion, where glucose alone = 100% [2, 4]: 150% (***) | Rank order on basis of anti-hyperglycaemic efficacy ([2]; acute): 1 | Glucose lowering, where glucose alone = 100% [2, 5]: 79% | Insulin secretion, where glucose alone = 100% [2, 5]: 119% (*)
